# Measurements reported in patent US12571052B2, “Immunomodulatory RNA” (THE TRUSTEES OF THE UNIVERSITY OF PENNSYLVANIA, priority 2017, dated 2026).
# Key:
# B16-F10 tumor cells [1] = assay: B16-F10/MEF co-implantation, tumor immune populations by flow cytometry; format: in vivo, C57BL/6 mice; conditions: for myeloid infiltration (macrophages, MDSCs) into the tumor microenvironment: tumors harvested 13 days later
# Description: Mice were implanted with tumors as described FIGS. 25A-25B. Tumors were harvested 13 days later and assessed for infiltration of macrophages or myeloid derived suppressor cells (MDSCs). Macrophages are considered Lin−, F4/80+, and CD11b+ cells. MDSCs are considered Lin−, F4/80−, CD11c−, CD11b+, and Ly6C+ cells. Tumors were treated with anti-CTLA4 blocking antibody (FIG. 26D) as described in FIGS. 25A and 25B, and tumors were harvested at d15 to measure M2 polarization of macrophages as marked by CD206.
# Furthermore, mice were implanted with the same tumors and subsequently treated with the CSF1R inhibitor BLZ945. Polarization of macrophages and frequency of CD103+DCs were tested.
# In addition, mice were implanted with tumors and treated with anti-CTLA4+/−CSF1Ri BLZ945. Tumors were harvested 13 days later and immune populations were assessed using an unbiased clustering of flow cytometry data.
# Mice were implanted with B16-F10 tumor cells mixed 1:1 with MEFs or MEFs co-expressing SRP9/14 (FIG. 35B). Tumors were harvested 2 weeks post-injection and analyzed for immune cell populations. Unshielded RN7SL1 increased the frequency of dendritic cells, the percentage of CD103+ dendritic cells, the percentage of CD69+CD8+ T cells, and the percentage of PD1+CD8+ T cells in tumors (FIG. 35C). […] Without wishing to be bound by theory, a CSF1R inhibitor blocks M2 polarization and may synergize with unshielded RN7SL1.
# B16-F10 tumor cells [2] = assay: B16-F10/MEF co-implantation, tumor growth and survival under checkpoint blockade; format: in vivo, C57BL/6 mice; conditions: MYC activated MEFs vs MEFs co-expressing SRP9/14; anti-CTLA-4 or anti-PD-1
# Description: Wild type (WT) C57BL/6 mice were injected with 5×10^4 B16-F10 tumor cells subcutaneously in the flank with 5×10^4 MYC activated mouse embryonic fibroblasts (MEFs) or MYC activated MEFs co-expressing SRP9/14. MYC activation is inducible with 4-OHT and results in the secretion of exosomes containing unshielded 7SL1 RNA, while co-expression of SRP9/14 ensures the 7SL1 RNA remains relatively shielded, allowing measurement of the stimulatory capacity specifically of the unshielded form (Nabet B Y, et al. Cell. 2017; 170 (2): 352-366.e13). Mice were subsequently treated with the anti-CTLA-4 or anti-PD-1 antibody (or not), and then tumor growth was monitored by caliper. Endpoint criterion was considered a tumor measurement of 1.5 cm in any direction.
# Tumors were implanted as described in FIGS. 25A-25B and treated with CSF1R inhibitor BLZ945 (Novartis) every 2 days for 2 weeks starting at day 0 to prevent M2 polarization of infiltrating myeloid cells. Mice were additionally treated with anti-CTLA4 (FIG. 27A) or anti-CTLA4 and anti-PD1 (FIGS. 27B and 27C) on days 5, 8, and 11. Tumor growth was monitored by caliper.
# [3] = tumors harvested 2 weeks post-injection
substance,measurement,setting,value
"RN7SL1: Human RN7SL1 (7SL, srpRNA) RNA, 5'ppp, in vitro transcribed or secreted unshielded in exosomes; SEQ ID NO: 2",T cell activation,B16-F10 tumor cells [1]; dependent on MyD88,enhanced T cell activation
same,percentage of CD69+CD8+ T cells,B16-F10 tumor cells [1]; [3],increased
same,percentage of CD103+ dendritic cells,B16-F10 tumor cells [1]; [3],increased
same,percentage of PD1+CD8+ T cells,B16-F10 tumor cells [1]; [3],increased
same,percentages of macrophages and MDSCs in CD45+ cells,B16-F10 tumor cells [1]; [3],also increased
same,frequency of dendritic cells in tumors,"B16-F10 tumor cells [1]; tumors harvested 2 weeks post-injection, listed as Unshielded RN7SL1",increased
same,frequency of dendritic cells in tumors,"B16-F10 tumor cells [1]; tumors harvested 2 weeks post-injection, listed as unshielded 7SL1",increased the frequency of DCs in vivo
same,"myeloid infiltration (macrophages, MDSCs) into the tumor microenvironment",B16-F10 tumor cells [1],triggered the infiltration of macrophages and MDSCs into the tumor microenvironment
same,"myeloid infiltration (macrophages, MDSCs) into the tumor microenvironment",B16-F10 tumor cells [1]; listed as unshielded 7SL,drives myeloid infiltration into the tumor microenvironment
same,response to checkpoint blockade therapy,B16-F10 tumor cells [2],does not significantly impact response to anti-CTLA-4 or anti-PD-1 therapy
